# Measured values published in ChEMBL document CHEMBL1133200, “Nonpeptide endothelin antagonists: from lower affinity pyrazol-5-ols to higher affinity pyrazole-5-carboxylic acids” (Bioorg Med Chem Lett, 2000).
# Assays:
# [1] = target: T1, Endothelin receptor type B (Rattus norvegicus, UniProt P21451); assay: In vitro inhibition of [125-I] labelled ET-1 endothelin binding to Endothelin B receptor in rat cerebellum; type: tissue-based
# T1 sequence (P21451 whole entry): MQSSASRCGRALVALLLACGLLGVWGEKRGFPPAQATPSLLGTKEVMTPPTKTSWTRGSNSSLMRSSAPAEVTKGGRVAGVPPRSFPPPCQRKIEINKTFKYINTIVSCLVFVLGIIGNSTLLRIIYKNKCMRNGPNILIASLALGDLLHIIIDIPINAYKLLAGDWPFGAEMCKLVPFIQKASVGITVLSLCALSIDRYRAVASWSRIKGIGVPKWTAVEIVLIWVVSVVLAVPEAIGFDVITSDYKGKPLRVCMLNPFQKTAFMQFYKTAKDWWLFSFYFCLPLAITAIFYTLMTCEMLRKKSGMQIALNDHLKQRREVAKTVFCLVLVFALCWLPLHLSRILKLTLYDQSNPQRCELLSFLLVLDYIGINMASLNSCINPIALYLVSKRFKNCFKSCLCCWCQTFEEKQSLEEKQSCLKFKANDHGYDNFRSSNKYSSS
# Endothelin-1 receptor [2] = target: T2, Endothelin-1 receptor (Rattus norvegicus, UniProt P26684); assay: In vitro inhibition of endothelin binding to endothelin A receptor in rat heart ventricles was measured using a 125-I labelled ET-1 competition assay
# T2 sequence (P26684 whole entry): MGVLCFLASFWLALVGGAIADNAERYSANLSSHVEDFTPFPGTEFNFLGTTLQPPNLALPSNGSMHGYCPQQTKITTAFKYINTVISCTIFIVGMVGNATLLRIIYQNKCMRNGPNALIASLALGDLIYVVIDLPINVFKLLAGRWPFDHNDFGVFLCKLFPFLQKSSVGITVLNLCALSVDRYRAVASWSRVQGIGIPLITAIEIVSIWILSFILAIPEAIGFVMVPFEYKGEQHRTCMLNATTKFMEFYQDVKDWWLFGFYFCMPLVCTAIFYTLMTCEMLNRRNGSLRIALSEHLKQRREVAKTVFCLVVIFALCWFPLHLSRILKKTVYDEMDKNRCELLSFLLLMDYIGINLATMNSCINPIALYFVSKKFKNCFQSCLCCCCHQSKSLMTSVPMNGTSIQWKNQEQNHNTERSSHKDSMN
# [3] = target: T1, Endothelin receptor type B; assay: In vitro inhibition of endothelin binding to Endothelin B receptor in rat cerebellum was measured using 125-I labelled ET-1 competition assay; No measurable affinity; type: tissue-based
# Endothelin-1 receptor [4] = target: T2, Endothelin-1 receptor; assay: In vitro inhibition of endothelin binding to Endothelin A receptor in rat heart ventricles was measured using 125-I labelled ET-1 competition assay; No measurable affinity
# [5] = pKa was determined in ethanol:water (1:1) system; type: physicochemical
IC50 [1] [µM],IC50 (Endothelin-1 receptor [2]) [µM],IC50 [3],IC50 (Endothelin-1 receptor [4]),pKa [5],Structure (SMILES)
25,3.8,,,,O=c1c(Cc2ccc3c(c2)OCO3)c(C(F)(F)F)[nH]n1Cc1ccccc1Cl
8.4,10,,,,COc1cccc(Cn2[nH]c(C(F)(F)F)c(Cc3ccc(Cl)c(Cl)c3)c2=O)c1
2.2,0.45,,,,COc1cccc(Cn2nc(C(F)(F)F)c(Cc3ccc4c(c3)OCO4)c2OCC(=O)O)c1
11,,,,,COc1cccc(Cn2[nH]c(C(F)(F)F)c(Cc3ccc4c(c3)OCO4)c2=O)c1
24,10,,,,O=c1c(Cc2ccc3c(c2)OCO3)c(C(F)(F)F)[nH]n1Cc1ccccc1
,98,Not Active,,,COc1cccc(Cn2[nH]c(C(F)(F)F)c(Cc3ccccc3)c2=O)c1
5.4,1.3,,,,COc1cccc(Cn2[nH]c(C(F)(F)F)c(Cc3cc(Cl)c4c(c3)OCO4)c2=O)c1
> 25,40,,,,COc1cccc(Cn2nc(C(F)(F)F)c(Cc3ccc4c(c3)OCO4)c2OCCO)c1
36,1.7,,,,O=c1c(Cc2ccc3c(c2)OCO3)c(C(F)(F)F)[nH]n1Cc1cccc(O)c1
,20,Not Active,,,COc1cccc(Cn2[nH]c(C)c(Cc3ccc4c(c3)OCO4)c2=O)c1
3.2,0.42,,,,COc1cccc(Cn2[nH]c(-c3ccccc3)c(Cc3ccc4c(c3)OCO4)c2=O)c1
,40,Not Active,,,COc1cccc(Cn2[nH]c(C(F)(F)F)c(Cc3ccc(F)cc3)c2=O)c1
33,1.8,,,,COc1ccccc1Cn1[nH]c(C(F)(F)F)c(Cc2ccc3c(c2)OCO3)c1=O
3.3,0.11,,,,COc1cccc(Cn2[nH]c(C(F)(F)C(F)(F)F)c(Cc3ccc4c(c3)OCO4)c2=O)c1
2.4,0.6,,,,COc1cccc(Cn2[nH]c(C(F)(F)F)c(Cc3cc4c(cc3Cl)OCO4)c2=O)c1
,64,Not Active,,,COc1cccc(Cn2nc(C(F)(F)F)c(Cc3ccc4c(c3)OCO4)c2OCCCC(=O)O)c1

IC50 [1] [µM],IC50 (Endothelin-1 receptor [2]) [µM],IC50 [3],IC50 (Endothelin-1 receptor [4]),pKa [5],Structure (SMILES)
,,Not Active,Not Active,,COc1cccc(Cn2[nH]c(C(F)(F)F)c(Cc3ccc(OC)c(OC)c3)c2=O)c1
1,0.14,,,,COc1cccc(Cn2[nH]c(C(F)(F)C(F)(F)C(F)(F)F)c(Cc3ccc4c(c3)OCO4)c2=O)c1
0.034,0.018,,,,COc1cccc(Cn2nc(-c3ccccc3)c(Cc3cc4c(cc3Cl)OCO4)c2C(=O)O)c1
39,48,,,,COc1ccc(Cc2c(C(F)(F)F)[nH]n(Cc3cccc(OC)c3)c2=O)cc1
15,3.1,,,,COc1cccc(Cn2[nH]c(-c3ccc([N+](=O)[O-])cc3)c(Cc3ccc4c(c3)OCO4)c2=O)c1
22,4.3,,,,COc1cccc(Cn2[nH]c(C(F)(F)F)c(Cc3ccc(Cl)cc3)c2=O)c1
,,Not Active,Not Active,,COc1cccc(Cn2[nH]c(C(F)(F)F)c(Cc3cc(OC)c(OC)c(OC)c3)c2=O)c1
0.04,0.028,,,,COc1cccc(Cn2nc(-c3ccccc3)c(Cc3ccc4c(c3)OCO4)c2C(=O)O)c1
12,3.8,,,,COc1ccc(Cn2[nH]c(C(F)(F)F)c(Cc3ccc4c(c3)OCO4)c2=O)c(OCC(=O)O)c1
9.2,2.1,,,,COc1ccc(Cn2[nH]c(C(F)(F)F)c(Cc3ccc4c(c3)OCO4)c2=O)cc1
,,Not Active,Not Active,,CCOC(=O)COc1c(Cc2ccc3c(c2)OCO3)c(C(F)(F)F)nn1Cc1cccc(OC)c1
29,3.5,,,,O=C(O)COc1cccc(Cn2[nH]c(C(F)(F)F)c(Cc3ccc4c(c3)OCO4)c2=O)c1
,,Not Active,Not Active,6,COc1cccc(Cn2nc(C(F)(F)F)c(Cc3ccc4c(c3)OCO4)c2OC)c1
24,7.5,,,,COc1ccc(Cc2[nH]n(Cc3cccc(OC)c3)c(=O)c2Cc2ccc3c(c2)OCO3)cc1
14,1.9,,,,O=c1c(Cc2ccc3c(c2)OCO3)c(C(F)(F)F)[nH]n1Cc1cccc(Cl)c1
17,5.6,,,,O=c1c(Cc2ccc3c(c2)OCO3)c(C(F)(F)F)[nH]n1Cc1ccc2c(c1)OCO2
